In US20090018201A1, “Method of Combating Bugs” (BASF Aktiengesellschaft, priority 2005, published 2009):

Columns and labels:
Experiment in all cases: Field test, activity against bugs on treated host plants
Assay type in all cases: in vivo
[1] = tested on: Lygus hesperus (Western plant bug); conditions: crop Alfalfa; rate 100 ppm (the 1st table r8); field plots, spray
Method: […] Treatments were diluted in water and applied at 400 to 600 liters/hectare to experimental plots using standard application equipment (such as a backpack sprayer). Each treatment was replicated 3 times and comprised an area of approximately 30 square meters. Pre-treatment evaluations of the number of live insects per plant were made one day prior to first treatment. Post-treatment evaluations were made at 5 to 7 day intervals. Field studies were conducted under ambient conditions during normal growing season.

[2] = tested on: Trigonotylus coelestialum (Rice leaf bug); conditions: crop Rice; rate 50 ppm (the 1st table r3); field plots, spray
Method: (§1) Host plants (such as rice, wheat, and cabbage) were treated with 50, 150 or 300 ppm of a compound of formula I. Treatments were diluted in water and applied at 400 to 600 liters/hectare to experimental plots using standard application equipment (such as a backpack sprayer). Each treatment was replicated 3 times and comprised an area of approximately 30 square meters. Pre-treatment evaluations of the number of live insects per plant were made one day prior to first treatment. Post-treatment evaluations were made at 5 to 7 day intervals. Field studies were conducted under ambient conditions during normal growing season.

[3] = tested on: Cletus trigonus (Slender rice bug); conditions: crop Rice; rate 50 ppm (the 1st table r14); field plots, spray
Method: as §1

[4] = tested on: Leptocorisa corbetti (Leaf-footed bug); conditions: crop Rice; rate 50 ppm (the 1st table r9); field plots, spray
Method: as §1

[5] = tested on: Stenotus rubrovittatus (Sorghum plant bug); conditions: crop Rice; rate 50 ppm (the 1st table r4); field plots, spray
Method: as §1

[6] = tested on: Paromius exiguus; conditions: crop Rice; rate 300 ppm (the 1st table r5); field plots, spray
Method: as §1

[7] = tested on: Nezara antennata (Common green stink bug); conditions: crop Rice; rate 300 ppm (the 1st table r6); field plots, spray
Method: as §1

[8] = tested on: Lagynotomus elongatus (Brown rice stink bug); conditions: crop Rice; rate 150 ppm (the 1st table r10); field plots, spray
Method: as §1

[9] = tested on: Halticus bracteatus (Garden fleahopper); conditions: crop Alfalfa; rate 300 ppm (the 1st table r11); field plots, spray
Method: as §1

[10] = tested on: Eurydema ornatum (Cabbage bug); conditions: crop Cabbage; rate 50 ppm (the 1st table r13); field plots, spray
Method: as §1

[11] = tested on: Euschistus spp (Stink bug spp.); conditions: crop Rice; rate 300 ppm (the 1st table r12); field plots, spray
Method: as §1

Measured: control

CCNC(=NNc1c(Cl)cc(C(F)(F)F)cc1Cl)C1(C)CC1(Cl)Cl (stereo not drawn) [N-ethyl-2,2-dichloro-1-methylcyclopropane-carboxamide, 2-(2,6-dichloro-α,α,α-trifluoro-p-tolyl)hydrazone]
over 75%: all assays above
